# Where “and” joins values, the source holds several entries; their conditions need not be identical. Equal values may be shown once.
# Assays:
# [1] = tested on: middle cerebral artery occlusion (MCAO); conditions: mouse, in vivo
# [2] = tested on: ERK/MAPK; assay: CSF pERK/ERK after pretreatment by ELISA (Example 3); assay type: in vivo, piglets; conditions: 30 minutes after pretreatment
# [3] = tested on: ERK; assay: CSF ERK activity (pERK/ERK) after HI by ELISA (Example 2); assay type: in vivo, newborn pigs; conditions: 60 min after HI; 10 μg/kg i.v. at 0 or 30 min after HI
# Protocol: Newborn pigs (1-5 days old, 1.2-1.5 kg) of both sexes were used in this study. The animal experimental protocol was approved by the Institutional Animal Care and Use Committee of the University of Pennsylvania. As described previously, Isoflurane (1 to 2 minimum alveolar concentration) was initially used for anesthesia induction, followed by α-chloralose (30-50 mg/kg supplemented with 5 mg/kg/hr intravenously) for maintenance of anesthesia. After tracheotomy, the animals were initially ventilated with room air and kept warm with heating pad to maintain the rectal temperature at 37-39° C. Bilateral femoral arteries were catheterized to monitor the blood pressure, blood gas tensions and pH. The femoral vein was catheterized for medication administration. A closed cranial window, consisting of a steel ring with a glass cover slip, connecting to 3 ports, was placed for direct pial artery visualization and diameter measurement. Small pial arteries (120 to 160 μm) and arterioles (50 to 70 μm) were identified under a microscope, visualized on a monitor connected to the microscope, and measured via a video microscaler (model VPA 550, For-A-Corp., Los Angeles, Calif.). […]
# ERK activity were then determined from frozen CSF samples described above. The levels of pERK and ERK were measured by ELISA kits (Enzo Life Sciences International, Inc., Plymouth Meeting, Pa.).
# [4] = tested on: neonatal mouse hypoxia model; assay: Neonatal mouse hypoxia model: mortality, development, neurobehavior (Example 5); assay type: in vivo, C57BL/6J mice
# Text: The protocol was approved by the Institutional Animal Care and Use Committee (IACUC) of the University of Pennsylvania and carried out in accordance with National Institutes of Health guidelines for the use of animals. C57BL/6J mice were purchased from The Jackson Laboratory (Bar Harbor, Me.) and inbreed pups were used for subsequent experiments. Pups were housed under a 12-hour light/dark cycle after birth with free access to food and water throughout the study. Pups from different litters were divided into 3 groups randomly. Pups in the control group (n=11) received i.p. injection of 17% dimethyl sulfoxide (DMSO) without hypoxia insult; the hypoxia group (n=46) received i.p. injection of 17% DMSO and hypoxia insult; SA group (n=26) received i.p. injection of 0.5 mg/kg SA in 17% DMSO and hypoxia insult. Pups of low weight (<1.2 g) were excluded from the study.
# The hypoxic insult was induced on postnatal day 1. After i.p. injections, pups were put into a glass chamber in a water bath where the temperature was maintained at 37° C. The chamber was tightly closed and filled with 8% oxygen with balanced nitrogen. Following 120 minutes of hypoxic gas exposure, the chamber was opened and the pups were exposed to the air. Chest compressions and limb stretches were performed for up to 20 minutes to regain spontaneous breathing. The pups that successfully regained spontaneous breathing were then returned to their mothers after recovery for 30 minutes.
# The neonate mouse will be considered as non-survival if no spontaneous breathing can be restored for 20 min resuscitation immediately after anoxic insult. The mortality rate will be calculated as: […]=(number of mice in a group-number of non-survival)/number of mice in a group.
# From postnatal day 2 to postnatal day 21, the pups were weighed and motor behavior observation was performed every day. Pups were observed individually in a plastic testing box. Each of the following behaviors was recorded for 3 minutes: crawling, walking, running, head point and sniffing, sitting, rearing and eye opening. After the observation, placing reflex, cliff aversion, negative geotaxis, righting response and forelimb grasping testing were performed. The first appearance of the behavior or reflex continued for two consecutive days was recorded.
# The open field test was performed to gauge locomotor activity on postnatal day 21 at which the mouse was considered juvenile. Mice were individually placed in a 41 cm (L)×41 cm (W)×30 cm (H) plastic box. The “central area” was defined as a 20.5 cm×20.5 cm square in the center of the box. The rest of the area was defined as the “peripheral area” (see FIG. 25A). The time each mouse spent on exploring the central and periphery parts and the number of rearing behaviors in each respective area were recorded for the first 5 minutes and 30 minutes.
# At the age of 10-11 weeks, all mice were tested in several behavioral tasks in the order of: zero mazes, barnes maze and fear conditioning. These tasks were performed to examine the basal anxiety level, spontaneous locomotor activity, motor learning, spatial learning and associative memory of the mice. The mice were given 5 days for rest between each behavioral test.
# “Time in open” measures mice anxiety due to their tendency to avoid open spaces. The anxiety was measured by recording the time spent in the open vs. enclosed space. Increased anxiety correlates to decreased time in the open. Open/Closed transitions measure overall activity. Increased transitions equate to greater activity.
# Measures the ability to learn with visual cues. Time to Target measures the time taken to find the target hole in an arena with 19 other holes and several visual cues. The Barnes Maze is easier to set-up and probably less stressful and a valid alternative to the Water Maze to study spatial memory. […]
# [5] = tested on: pial artery; conditions: pig, in vivo
# [6] = tested on: basilar artery; assay: Subarachnoid hemorrhage model (Example 8); assay type: in vivo
# [7] = tested on: pial artery; assay type: in vivo, piglets
# [8] = tested on: pial artery; conditions: 10%-16% changes compared to the baseline
# [9] = SB203580 10 μM topical 30 min before salvinorin A
# [10] = SP600125 1 μM topical 30 min before salvinorin A
# [11] = U0126 1 mg/kg i.v. 30 min before salvinorin A
# [12] = pretreatment 10 μg/kg i.v. 30 min before H/I
smiles,measurement,setting,value
COC(=O)[C@@H]1C[C@H](OC(C)=O)C(=O)[C@H]2[C@@]1(C)CC[C@H]1C(=O)O[C@H](c3ccoc3)C[C@]21C [Salvinorin A],blood brain barrier disruption and vascular leakage (Evans blue extravasation),[1],reduced the disruption and leakage
same,infarct size (TTC stains),[1],dose-dependent reduction
same,"motor function, grip strength score",[1],dose-dependent improvements in motor function
same,neurobehavior,[1],dose-dependent improvements
same,overall motor function,[1],improves overall motor function
same,protective effect on leakage with norbinaltorphimine,[1],inhibited the protective effect of salvinorin A
same,ratio of pERK/ERK in CSF,[2],increased significantly
same,ratio of pERK/ERK in CSF with U0126,[2]; U0126 30 minutes before salvinorin,unchanged
same,CSF ERK activity (pERK/ERK),[3],reduced to the baseline level
same,mortality rate,"[4]; 0.5 mg/kg i.p. before 120 min hypoxia (8% oxygen), postnatal day 1, hypoxia group 70%",38.5%
same,"delayed appearance of forelimb grasping, cliff aversion, righting response and eye opening",[4]; 0.5 mg/kg i.p. before hypoxia,prevented these delays
same,pups survived after HI injury,[4]; 0.5 mg/kg i.p. before hypoxia,16 out of 26
same,body weight difference among groups,"[4]; P7, P14 and P21",no significant difference was observed among groups
same,"time in the central area, open field testing",[4]; P21,not statistically significant
same,rearing test,"[4]; P21, first 5 minutes and 30 minutes",impairment was not observed
same,Barnes maze spatial memory,[4]; age 10-11 weeks,no significant difference among groups
same,"elevated zero maze: time in open arm and open/closed transitions, SA vs hypoxia",[4]; age 10-11 weeks,no significant differences
same,fear conditioning,[4]; age 10-11 weeks,no significant differences were observed among groups
same,first appearance of rearing without support,"[4]; hypoxia 19.86±0.29, control 18.18±0.44, mean±SEM, listed as SA",18.69 ± 0.38 days and 18.69 ± 0.3843 days
same,"other developmental parameters (crawling, walking, running, head point and sniffing, sitting, rearing with support, negative geotaxis, placing reflex)","[4]; mouse, in vivo",no statistical significance
same,body weight vs hypoxia group,[4]; postnatal day 2 and day 3,increased body weight
same,blood pressure changes during administration,[5],No significant blood pressure changes
same,dilation of constricted pial arteries,[5],dilated pial arteries under elevated tone conditions
same,dilation of pial artery,[5],"dose dependently (10 nM, 1 μM) dilated the pial artery"
same,dilation response in presence of L-NNA,[5],abolished by L-NNA
same,dilation response in presence of glibenclamide,[5],blocked the dilation effects of salvinorin A
same,dilation response in presence of naloxone,[5],blocked the dilation effects
same,dilation response in presence of norbinaltorphimine,[5],blocked the dilation effects
same,dilation response in presence of sulpiride,[5],had no effect on the dilation response
same,dilation with repeated administration,[5],sustained dilation effects was observed
same,neurological score,[6]; 24 hour after SAH,no significant effect on the neurological score
same,diameter of the basilar artery,"[6]; 24 hours after SAH, H&E",increased the diameter
same,thickness of the wall of the basilar artery,"[6]; 24 hours after SAH, H&E",decreased the thickness of the wall
same,preserved response to hypercapnia with SB203580,[7]; [9],No significant change in the preservative effects
same,preserved response to hypotension with SB203580,[7]; [9],no significantly changes
same,preserved response to hypercapnia with SP600125,[7]; [10],No significant change in the preservative effects
same,preserved response to hypotension with SP600125,[7]; [10],no significantly changes
same,preserved response to hypercapnia with U0126,[7]; [11],abolished by U0126
same,preserved response to hypotension with U0126,[7]; [11],abolished by U0126
same,pial artery dilation response to hypercapnia after hypoxia/ischemia,[7]; [12],preserved the dilation response of pial artery to hypercapnia
same,pial artery dilation response to hypotension after hypoxia/ischemia,[7]; [12],preserved the dilation response of pial artery to hypotension
same,concentration required to effectively dilate pial arteries,[8],10 nM

# Reference: patent US11000505B2 (priority 2010, dated 2021)
